Columns and labels:
human cathepsin K (CatK) = human cathepsin K (CatK) (Homo sapiens (Human), UniProt P43235); test: CatK functional enzyme assay; type: biochemical; conditions: recombinant human CatK, substrate Z-FR-AMC 40 μM, pH 5.5; Ki by Cheng Prusoff equation; read-out: hCatK, Ki
Outline: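 Recombinant human enzymes in 50 mM NaOAc, 10 mM EDTA, 1 mM DTT, 0.01% Triton X-100, pH 5.5, 10 min at RT. CatK: 0.00175 mU/well with 40 μM Z-FR-AMC; CatL: 0.000874 mU/well with 40 μM Z-VVR-AMC. AMC fluorescence read; IC50 converted to Ki via Cheng–Prusoff.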

human cathepsin L (CatL) = human cathepsin L (CatL) (Homo sapiens (Human), UniProt P07711); test: CatL functional enzyme assay; type: biochemical; conditions: read-out: hCatL, inhibition [%] at 31.6 μM
human cathepsin S (CatS) = human cathepsin S (CatS) (Homo sapiens (Human), UniProt P25774); test: CatS functional enzyme assay; type: biochemical
Outline: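 Recombinant human enzymes were incubated 10 min at RT with AMC substrate: CatS 0.0007 mU/well with Z-VVR-AMC 5 µM; CatK 0.00175 mU/well with Z-FR-AMC 40 µM; CatL 0.000874 mU/well with Z-VVR-AMC 40 µM. Fluorescence gave IC50, converted to Ki by Cheng-Prusoff.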

[1] = Caco 2 permeability assay; type: in vitro ADME, human; conditions: human
Protocol: (§1) The intestinal permeability of a potential drug is assessed by in vitro cell culture from a human colon adenoma-carcinoma derived cell line. This cell line expresses some of the systems considered relevant to active drug transport e.g. […] (P-gp). In vitro cellular permeability assays can reflect both, permeation by passive diffusion and active transport (uptake and efflux). The rate of permeation across monolayers of Caco 2 cells were correlated to the extents of absorption (Hidalgo et al., Gastroenterology 1989; 96(3):736 49). Original methodology was developed by Artursson and Taveli (Drug Bioavailability. Series: Methods and Principles in Medicinal Chemistry. Weinheim: Wiley-VCH Verlag; 2003; p. 72-89).
(§2) The assay is performed as a trans-flux experiment. Caco-2 cells (cells from ATCC) are seeded and grown to confluence to form a monolayer (ca. 3 weeks, between passage numbers 40-60) on a readily permeable support in a plastic well supported within a chamber (Millipore Multiscreen Caco-2 plates, at a cell density of ca. 1×10^5 cells/cm^2). Cells are cultured for 20 days in DMEM and media is changed every two or three days. The cells form tight junctions, so paracellular diffusion is not possible, and grow in a polarised manner, efflux transporters (P-gp) are expressed on their apical surfaces facing the culture medium, rather than at their basolateral surfaces through which they are attached to the support membrane. A low concentration of a test compound is added to the upper (apical: A) or lower (basolateral: B) chambers, and the rate of loss from the donor compartment, and the rate of transfer to the acceptor chamber, is determined by LC-MS/MS. Consequently the influence of efflux transporters expressed in the apical membrane can be determined by comparing permeability rates from A to B and B to A. Assays are generally performed in gently shaken protein-free buffer.
(§3) On ca. day 20 the permeability study is performed. The monolayers are prepared by rinsing both basolateral and apical surfaces twice with Hanks Balanced Salt Solution (HBSS) pH 7.4 buffer with HEPES (25 mM) and 4.45 mM glucose at 37° C. Cells are then incubated with HBSS in both apical and basolateral compartments for 40 min to stabilise physiological parameters. Incubations are carried out in an atmosphere of 5% CO2 with a rel. humidity of 95% at 37° C.
(§4) HBSS is next removed from the apical compartment and replaced with test compound dosing solution. Test compound dosing solutions are made by diluting 10 mM test compound in DMSO with HBSS to give a final test compound concentration of 10 μM (final DMSO concentration 1%).
(§5) The fluorescent integrity marker lucifer yellow is also included in the dosing solution. Analytical standards are made from dosing solutions. The apical compartment inserts are then placed into ‘companion’ plates containing fresh HBSS. For basolateral to apical (B-A) permeability determination the experiment is initiated by replacing buffer in the inserts then placing them in companion plates containing dosing solutions. At 120 min the companion plate is removed and apical and basolateral samples diluted for analysis by LC-MS/MS. Test compound permeability is assessed in duplicate. […] Talinolol (a known P-gp substrate 2) is also included as a control compound to assess whether functional P-gp is present in the Caco-2 cell monolayer.
(§6) Test and control compounds are quantified by LC-MS/MS cassette analysis using a 5-point calibration with appropriate dilution of the samples. The starting concentration (C0) and experimental recovery are calculated from both apical and basolateral compartment concentrations.
(§7) Apparent permeability (Papp), used interchangeably with effective permeability (Peff) and efflux ratio (ER) are generated for each compound and reference compound. The permeability coefficient for each compound (Papp) is calculated from the following equation: Peff=dQ/dt/C0×A […]

Caco-2 cells = test: Caco 2 permeability assay; type: in vitro ADME, human; conditions: Caco-2, verbal assessment
Protocol: as §1, §2, §3, §4, §5, §6, §7

Chain of human cathepsin S (CatS) (P25774 115-331): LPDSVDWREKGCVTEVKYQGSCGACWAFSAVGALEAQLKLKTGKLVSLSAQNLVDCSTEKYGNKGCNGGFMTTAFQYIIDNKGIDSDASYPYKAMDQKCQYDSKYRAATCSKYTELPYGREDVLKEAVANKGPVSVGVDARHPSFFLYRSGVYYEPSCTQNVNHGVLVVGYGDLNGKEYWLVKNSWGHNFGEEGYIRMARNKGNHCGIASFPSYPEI
Chain of human cathepsin K (CatK) (P43235 115-329): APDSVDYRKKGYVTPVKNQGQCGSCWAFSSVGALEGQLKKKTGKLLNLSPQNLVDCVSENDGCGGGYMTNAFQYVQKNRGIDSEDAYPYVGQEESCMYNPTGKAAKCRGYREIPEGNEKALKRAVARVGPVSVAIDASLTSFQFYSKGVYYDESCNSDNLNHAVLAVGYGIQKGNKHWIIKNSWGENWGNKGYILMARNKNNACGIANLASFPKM
Chain of human cathepsin L (CatL) (P07711 114-333): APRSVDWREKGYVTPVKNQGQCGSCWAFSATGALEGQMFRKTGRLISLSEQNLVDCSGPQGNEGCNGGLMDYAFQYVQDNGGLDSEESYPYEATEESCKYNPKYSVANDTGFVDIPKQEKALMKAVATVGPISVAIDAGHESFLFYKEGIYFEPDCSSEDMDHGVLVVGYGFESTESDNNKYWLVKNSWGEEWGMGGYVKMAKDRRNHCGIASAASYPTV

Ki (human cathepsin K (CatK)): 38 nM
inhibition at 31.6 µM (human cathepsin L (CatL)): 71%
Selectivity Ki(hCatS)/Ki(hCatK) (human cathepsin S (CatS); ratio Ki(hCatS)/Ki(hCatK)): 3.8
Ki (human cathepsin S (CatS); recombinant human CatS, substrate Z-VVR-AMC 5 μM, pH 6.5, Ki by Cheng Prusoff equation, read-out: hCatS, Ki): 146 nM
efflux ratio at 120 min, 10 μM ([1]; pH 7.4, efflux ratio ER=Peff(B−A)/Peff(A−B), Caco-2): 46.1
Papp A→B at 120 min, 10 μM ([1]; Caco-2 monolayer, apical to basolateral, 10 μM, 120 min, HBSS pH 7.4, read-out: Peff a − b): 0.53 ×10⁻⁶ cm/s
Papp B→A at 120 min, 10 μM ([1]; Caco-2 monolayer, basolateral to apical, 10 μM, 120 min, HBSS pH 7.4, read-out: Peff b − a): 24.6 ×10⁻⁶ cm/s
A to B permeability (in words) (Caco-2 cells): poor
B to A permeability (in words) (Caco-2 cells): good
efflux ratio (ER) (in words) (Caco-2 cells): extremely high
Structure (SMILES): O=C(N[C@H](C(=O)N1C[C@H](Cl)[C@H]2OCC(=O)[C@H]21)C1CCCCC1)c1cccc(-c2cn[nH]c2)c1 [Example C1, N-((S)-2-((3aS,6S,6aS)-6-chloro-3-oxotetrahydro-2H-furo[3,2-b]pyrrol-4(5H)-yl)-1-cyclohexyl-2-oxoethyl)3-(1H-pyrazol-4-yl)benzamide, reference compound]

Reference: US9725459B2, “3-oxo-tetrahydro-furo[3,2-B]pyrrol-4(5H)-yl) derivatives I” (GRÜNENTHAL GMBH, priority 2014, dated 2017)
